Experimental data reported in ChEMBL document CHEMBL1201862, “PubChem BioAssay data set” (2004).
Active and inactive are the calls of the source.

Columns and labels:
[1] = HEp-2 cell cytotoxicity, dose response, cytotoxicity control for RSV inhibitor project, HTS (AID 2410); type: functional; conditions: human respiratory syncytial virus
[2] = cytotoxicity toward NIH3T3 fibroblasts, dose response, counter-screen, cell-based, ATP luminescence, mouse fibroblasts (AID 2010); type: functional;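 further: cells exposed to compound for about 90 hours before reading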
[3] = Luminescence Cell-Based Dose Retest to Confirm Inhibitors of Cancer Stem Cells. [Related pubchem assays (depositor defined):AID2717, AID2721]; type: functional; conditions: Homo sapiens
[4] = inhibitors of intracellular T. cruzi replication, confirmation, NIH3T3 host cells, beta-gal luminescence (AID 2044); type: functional, cell-based;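 further: intracellular parasites grown in NIH/3T3 mouse fibroblasts as host cells; luminescent beta-galactosidase reporter signal from transgenic T. cruzi replicating inside host cells; inhibitors lower the luminescence signal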
Paired box protein Pax-8 = Paired box protein Pax-8 (Homo sapiens, UniProt Q06710); assay: inhibitors of PAX8-driven TPO luciferase reporter, dose response, RMG-I cells, cherry-pick (AID 687027); type: functional, cell-based;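 further: luciferase reporter driven by Pax8 target thyroperoxidase promoter measured by SteadyGlo luminescence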
Sequence of Paired box protein Pax-8 (Q06710 whole entry): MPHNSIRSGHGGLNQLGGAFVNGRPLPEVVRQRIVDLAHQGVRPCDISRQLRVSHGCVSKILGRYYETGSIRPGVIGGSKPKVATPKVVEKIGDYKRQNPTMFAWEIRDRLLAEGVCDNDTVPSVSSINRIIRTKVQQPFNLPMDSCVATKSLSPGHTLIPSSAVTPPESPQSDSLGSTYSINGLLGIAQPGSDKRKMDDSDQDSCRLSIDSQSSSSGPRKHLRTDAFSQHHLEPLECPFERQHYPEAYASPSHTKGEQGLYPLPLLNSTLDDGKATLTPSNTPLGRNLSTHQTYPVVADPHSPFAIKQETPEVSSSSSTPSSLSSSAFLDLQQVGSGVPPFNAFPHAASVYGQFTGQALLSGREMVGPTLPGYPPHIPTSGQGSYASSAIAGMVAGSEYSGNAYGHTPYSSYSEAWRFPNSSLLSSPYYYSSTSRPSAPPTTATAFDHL

[5] = target: T1, Rac GTPase-activating protein 1 (Homo sapiens, UniProt Q9H0H5); assay: MgcRacGAP GTPase-activating activity inhibitors, confirmation, biochemical, ADP Hunter fluorescence, primary and confirmatory (AID 624330); type: functional
T1 sequence (Q9H0H5 whole entry): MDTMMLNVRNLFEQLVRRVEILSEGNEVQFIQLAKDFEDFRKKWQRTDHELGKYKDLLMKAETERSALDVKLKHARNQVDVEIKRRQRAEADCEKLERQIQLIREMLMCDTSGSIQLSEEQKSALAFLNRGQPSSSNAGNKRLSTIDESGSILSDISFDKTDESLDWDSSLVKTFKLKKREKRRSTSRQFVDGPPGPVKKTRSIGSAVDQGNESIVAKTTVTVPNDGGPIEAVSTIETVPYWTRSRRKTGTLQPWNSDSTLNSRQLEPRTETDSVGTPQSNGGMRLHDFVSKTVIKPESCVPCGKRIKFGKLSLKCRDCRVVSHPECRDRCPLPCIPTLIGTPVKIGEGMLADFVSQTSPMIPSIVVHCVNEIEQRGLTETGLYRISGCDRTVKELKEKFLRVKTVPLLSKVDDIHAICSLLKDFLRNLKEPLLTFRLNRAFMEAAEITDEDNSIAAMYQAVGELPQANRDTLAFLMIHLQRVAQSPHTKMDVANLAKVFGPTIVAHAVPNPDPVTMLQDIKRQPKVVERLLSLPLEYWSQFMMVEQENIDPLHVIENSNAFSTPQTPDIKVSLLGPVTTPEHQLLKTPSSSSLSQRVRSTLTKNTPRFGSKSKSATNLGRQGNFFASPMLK

Streptococcus = assay: Group A Streptococcus viability loss, dose response, counter-screen for streptokinase expression inhibitor project, luminescence, BacTiterGlo (AID 1915); type: functional, organism-based;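 further: potency for reduction of bacterial viability or growth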
Streptokinase A = target: T2, Streptokinase A (Streptococcus pyogenes serotype M1, UniProt P10520); assay: S. pyogenes streptokinase expression inhibitors, potency, dose response, plasminogen activation absorbance, OD405 (AID 1914); type: functional, Streptococcus pyogenes M1 GAS;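 further: secreted streptokinase activity via plasminogen activation per viability signal from cell pellet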
T2 sequence (P10520 whole entry): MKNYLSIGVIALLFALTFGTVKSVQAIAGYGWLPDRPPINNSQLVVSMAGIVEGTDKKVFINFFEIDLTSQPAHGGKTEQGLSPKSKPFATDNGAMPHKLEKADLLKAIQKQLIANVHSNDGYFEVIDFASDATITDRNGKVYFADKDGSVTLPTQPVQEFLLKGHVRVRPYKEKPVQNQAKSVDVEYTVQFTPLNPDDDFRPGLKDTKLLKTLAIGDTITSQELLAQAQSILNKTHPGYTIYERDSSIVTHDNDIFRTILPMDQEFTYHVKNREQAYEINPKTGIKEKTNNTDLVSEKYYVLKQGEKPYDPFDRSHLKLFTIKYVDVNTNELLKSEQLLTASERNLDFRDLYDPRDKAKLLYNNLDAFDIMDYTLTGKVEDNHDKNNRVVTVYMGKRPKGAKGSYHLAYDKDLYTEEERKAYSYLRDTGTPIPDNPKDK

[6] = tested on: Streptococcus sp. 'group A'; assay: growth inhibition of control SK(-) GAS strain, dose response, counter-screen for streptokinase expression inhibitor project, luminescence, kanamycin, BacTiterGlo, confirmation (AID 1900); type: functional, organism-based
H9c2 = assay: cells; type: functional, cell-based; conditions: Rattus norvegicus, H9c2, Myocardium;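 further: confirmatory concentration-response retest of ultra-high-throughput screening hits for modulation of myocardial damage; cell death induced by hydrogen peroxide oxidative stress; compound pretreatment for 60 min then peroxide exposure for 2 h; potency is for protecting the cells against peroxide damage rather than for killing them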
[7] = target: T3, Corticotropin-releasing factor receptor 2/Corticotropin-releasing factor-binding protein (Homo sapiens, UniProt P24387+Q13324); assay: activators of CRF receptor 2 with binding protein – uHTS hits, confirmation (AID 602473); type: functional; conditions: read-out: EC50_Mean
T3 sequence (Q13324 whole entry): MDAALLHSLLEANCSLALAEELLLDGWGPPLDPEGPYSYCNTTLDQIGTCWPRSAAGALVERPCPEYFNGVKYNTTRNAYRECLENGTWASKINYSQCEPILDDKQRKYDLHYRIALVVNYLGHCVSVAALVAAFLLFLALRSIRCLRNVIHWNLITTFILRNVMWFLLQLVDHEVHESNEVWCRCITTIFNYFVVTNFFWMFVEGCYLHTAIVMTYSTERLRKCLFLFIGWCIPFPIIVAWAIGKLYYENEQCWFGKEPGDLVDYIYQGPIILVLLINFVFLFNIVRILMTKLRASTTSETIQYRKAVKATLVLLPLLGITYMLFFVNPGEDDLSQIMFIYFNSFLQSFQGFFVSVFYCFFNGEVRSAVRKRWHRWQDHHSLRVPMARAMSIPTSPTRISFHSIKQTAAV
T3 sequence (P24387 whole entry): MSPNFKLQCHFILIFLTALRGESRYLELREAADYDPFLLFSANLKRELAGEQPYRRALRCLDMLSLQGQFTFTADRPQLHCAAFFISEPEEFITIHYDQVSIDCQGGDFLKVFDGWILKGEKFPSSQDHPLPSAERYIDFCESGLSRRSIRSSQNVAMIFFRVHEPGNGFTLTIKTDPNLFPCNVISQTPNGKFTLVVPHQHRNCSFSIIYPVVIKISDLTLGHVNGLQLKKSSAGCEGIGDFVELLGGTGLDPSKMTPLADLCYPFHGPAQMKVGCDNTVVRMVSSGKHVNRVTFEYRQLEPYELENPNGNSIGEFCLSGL

[8] = growth suppression of beta-catenin-knockout colon cells, dose response, cell-based, HCT116, human colon tumor (AID 1045); type: functional;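 further: HCT116 colon tumor cells with beta catenin knocked out; cells exposed to compound for 60 hours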
[9] = growth suppression of PTEN-null colon cells, dose response, cell-based, HCT116 PTEN knockout (AID 1047); type: functional;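 further: HCT116 colon tumor cells with PTEN knocked out; cells exposed to compound for 60 hours before readout; potency for loss of cell viability measured by luminescence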
Cytochrome P450 3A4 = Cytochrome P450 3A4 (Homo sapiens, UniProt P08684);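 further: CYP3A4 tested as one member of a cytochrome P450 panel screen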
Sequence of Cytochrome P450 3A4 (P08684 whole entry): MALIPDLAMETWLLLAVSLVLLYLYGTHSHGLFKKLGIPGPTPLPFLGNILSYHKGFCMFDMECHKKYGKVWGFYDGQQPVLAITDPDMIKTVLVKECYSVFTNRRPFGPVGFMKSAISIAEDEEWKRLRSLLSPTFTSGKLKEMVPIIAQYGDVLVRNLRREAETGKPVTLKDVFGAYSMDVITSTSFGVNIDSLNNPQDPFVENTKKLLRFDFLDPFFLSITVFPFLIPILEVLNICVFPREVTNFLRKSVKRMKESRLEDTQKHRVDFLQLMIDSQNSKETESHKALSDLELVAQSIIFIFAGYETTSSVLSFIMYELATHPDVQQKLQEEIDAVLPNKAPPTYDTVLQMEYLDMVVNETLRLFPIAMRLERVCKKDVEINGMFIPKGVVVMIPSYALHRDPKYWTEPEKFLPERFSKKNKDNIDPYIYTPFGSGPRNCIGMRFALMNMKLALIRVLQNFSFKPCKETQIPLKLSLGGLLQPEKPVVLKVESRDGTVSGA

[10] = C. albicans growth with fluconazole, confirmation, fluorescence, retest (AID 2467); type: functional, cell-based
[11] = NIH-3T3 fibroblast cytotoxicity, dose response, cytotoxicity control, cell-based, fluorescence, Alamar Blue, secondary assay (AID 2327); type: functional;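 further: NIH-3T3 mouse fibroblasts cultured with fluconazole at 8 µg/mL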
[12] = Luminescence Cell-Based Dose Response HTS to Identify Activators of Luciferase Translation or Activity in H4 […] Cells. [Related pubchem assays: 1829 (Project Summary), 1814 (Primary HTS)]; type: functional
H4 = assay: Luminescence Cell-Based Dose Response HTS to Identify Activators of 5'UTR Stem-Loop Driven Prion Protein mRNA Translation in H4 Neuroglioblastoma Cells. [Related pubchem assays: 1829 (Project Summary), 1814 (Primary HTS)]; type: functional; conditions: Homo sapiens
[13] = Luminescence Cell-Based Dose Confirmation HTS to Identify Activators of 5'UTR Stem-Loop Driven Alpha-Synuclein mRNA Translation in H4 Neuroglioblastoma Cells. [Related pubchem assays: 1829 (Project Summary), 1814 (Primary HTS)]; type: functional
[14] = target: T4, Ubiquitin-conjugating enzyme E2 N (Homo sapiens, UniProt P61088); type: functional;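 further: Dose-response confirmation in a TR-FRET assay detecting UBC13-driven polyubiquitin chain formation, inhibition measured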
T4 sequence (P61088 whole entry): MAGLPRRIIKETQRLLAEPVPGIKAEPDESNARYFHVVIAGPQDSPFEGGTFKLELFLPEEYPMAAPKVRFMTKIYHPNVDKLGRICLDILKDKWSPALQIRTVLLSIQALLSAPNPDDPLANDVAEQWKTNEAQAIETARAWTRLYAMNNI

Cytochrome P450 2C19 = Cytochrome P450 2C19 (Homo sapiens, UniProt P33261); assay: Cytochrome panel assay with activity outcomes. Panel member name: p450-cyp2c19 Compounds with AC50 equal or less than 10 uM are considered active; type: functional; conditions: read-out: AC50
Sequence of Cytochrome P450 2C19 (P33261 whole entry): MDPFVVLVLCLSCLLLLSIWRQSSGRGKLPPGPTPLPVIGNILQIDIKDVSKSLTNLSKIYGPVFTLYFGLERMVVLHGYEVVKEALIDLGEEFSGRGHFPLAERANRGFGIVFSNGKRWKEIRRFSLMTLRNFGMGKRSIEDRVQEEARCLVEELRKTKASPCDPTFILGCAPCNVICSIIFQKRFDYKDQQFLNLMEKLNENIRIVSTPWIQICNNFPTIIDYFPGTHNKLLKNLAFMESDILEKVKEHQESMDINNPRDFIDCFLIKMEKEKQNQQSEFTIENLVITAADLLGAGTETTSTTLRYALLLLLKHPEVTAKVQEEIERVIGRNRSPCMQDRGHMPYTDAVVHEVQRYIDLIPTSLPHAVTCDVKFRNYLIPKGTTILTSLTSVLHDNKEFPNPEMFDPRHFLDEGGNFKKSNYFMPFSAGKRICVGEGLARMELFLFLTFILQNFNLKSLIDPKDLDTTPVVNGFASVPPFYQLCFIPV

CC(C)c1ccc(NC(=O)/C(C#N)=C/c2ccncc2)cc1
CC50 [1]: 14.5 µM (active)

O=C1[C@@H]2Cc3c([nH]c4ccccc34)C(c3cccc(Br)c3)N2C(=O)CN1C1CCN(Cc2ccccc2)CC1 (some centres undefined)
EC50 [2]: 9.95 µM (active) | AC50 [3]: 6.9 µM (active) | EC50 [4]: 1.32 µM (active) | AC50 (Paired box protein Pax-8): 12.1 µM (active)

CCOc1ccccc1NC(=O)C(NCCN(C)C)c1ccccc1 (centres undefined)
IC50 [5]: 91.1 µM (active)

COc1cc(C(=O)N/N=C/c2ccc(OC(=O)c3ccccc3Cl)c(OC)c2)ccc1O
EC50 (Streptococcus): 8.59 µM (active) | EC50 (Streptokinase A): > 150 µM (not active) | EC50 [6]: 6.17 µM (active)

Cc1ccc(CN2CCN(CC3CC4C=CC3C4)CC2)cc1 (centres undefined)
IC50 [5]: 113 µM (active)

CC1Nc2ncnc(N3CCN(c4ccccc4)CC3)c2N(Cc2ccc(Cl)cc2)C1=O (centres undefined)
IC50 (H9c2): > 79 µM (inactive) | CC50 [1]: 26.4 µM (active)

C[C@]12CCC(O)CC1CCC1C2CC[C@]2(C)C(c3cc(C(F)(F)F)n[nH]3)CCC12 (some centres undefined)
EC50 [7]: 11.1 µM (active) | EC50 (Streptokinase A): 4.19 µM (active)

CCCCCCC(C)(C)c1ccc([C@@H]2C[C@H](O)CC[C@H]2CCCO)c(O)c1 [CP-55940]
AC50 [3]: 3.58 µM (active)

CCc1sc(C(=O)Nc2nccs2)cc1C
EC50 (Streptococcus): > 150 µM (not active) | EC50 (Streptokinase A): > 150 µM (not active) | EC50 [6]: > 150 µM (not active)

COc1cccc(CC(=O)OCC(=O)Nc2nnc(-c3ccccc3)o2)c1
EC50 (Streptococcus): > 150 µM (not active) | EC50 (Streptokinase A): > 150 µM (not active) | EC50 [6]: 7.82 µM (active)

CC1CN(c2nc(-c3ccc(Br)cc3)nnc2-c2ccccc2)CC(C)N1 (centres undefined)
EC50 [8]: 10 µM (active) | EC50 [9]: 11.3 µM (active)

CC(C)CCOc1ccc(-c2c(=O)n(OCc3ccc([N+](=O)[O-])cc3)c3ccccc3[n+]2[O-])cc1
EC50 [8]: 28.3 µM (active) | EC50 [9]: 20.7 µM (active)

C[C@]12CCC(O)CC1CCC1C2CC[C@]2(C)C(c3cc(C(F)(F)F)[nH]n3)CCC12 (some centres undefined)
CC50 [1]: 8.08 µM (active) | EC50 (Streptococcus): 3.87 µM (active) | AC50 [3]: 1.67 µM (active) | EC50 [6]: 1.17 µM (active)

COc1cc(OC)c(NC(=O)C2CCN(S(=O)(=O)c3ccc4c(c3)CC(C)N4C(C)=O)CC2)cc1Cl (centres undefined)
CC50 [1]: > 50 µM (active)

C=CCc1cccc(/C=N/c2cc(Br)ccc2O)c1O
IC50 [5]: 14.7 µM (active)

C=C(C)COc1ccc(-c2nc(N)ncc2Oc2ccc(OC)cc2)c(O)c1
EC50 (Streptococcus): > 150 µM (not active) | EC50 (Streptokinase A): > 150 µM (not active) | EC50 [6]: 47.6 µM (active)

COc1cc(NC(=O)c2cc3nc(-c4ccccc4)cc(-c4ccccc4)n3n2)cc(OC)c1OC
IC50 (H9c2): 8.62 µM (active) | EC50 (Streptococcus): > 150 µM (not active) | EC50 (Streptokinase A): > 150 µM (not active) | EC50 [6]: 11.7 µM (active) | AC50 (Cytochrome P450 3A4): 10 µM (inconclusive)

CCc1cc2cccc(C)c2nc1SCC(=O)c1ccc(NC(C)=O)cc1
AC50 [3]: 2.94 µM (active)

CCOC(=O)c1cnc(-n2cc(C)cn2)nc1Nc1ccccc1OCC
EC50 (Streptococcus): 6.46 µM (active) | EC50 (Streptokinase A): > 150 µM (not active) | EC50 [10]: > 38 µM (not active) | EC50 [6]: 4.47 µM (active) | EC50 [11]: 44.2 µM (active)

N#C/C(=C\c1ccc(OCc2ccccc2)cc1)C(=O)Nc1nc2c(s1)CCN(Cc1ccccc1)C2
CC50 [1]: 28.8 µM (active)

Cc1nc(-c2ccc(Cl)cc2)sc1C1(C)CC(c2ccccc2)=NO1 (centres undefined)
EC50 [12]: 9.8 µM (active) | EC50 (H4): 31.3 µM (active) | EC50 [13]: 7.51 µM (active)

CCOC(=O)c1c(NC(=O)CCS(=O)(=O)c2ccccc2)sc2c1CCN(C)C2
EC50 (Streptococcus): > 150 µM (not active) | EC50 (Streptokinase A): > 150 µM (not active) | EC50 [6]: > 150 µM (not active)

COc1ccc(CCn2c(-c3ccccc3)nc3c(c(=O)c4ccccc4n3C)c2=O)cc1
EC50 [12]: 24.2 µM (inconclusive) | EC50 (H4): > 120 µM (not active) | EC50 [13]: > 120 µM (not active)

COc1cc(OC)cc(C(=O)Nc2cccc(-c3ccc(N4CCOCC4)nn3)c2)c1
EC50 (Streptococcus): > 150 µM (not active) | EC50 (Streptokinase A): > 150 µM (not active) | EC50 [6]: > 150 µM (not active)

Cc1ccc(-c2cc3nc(-c4ccccc4)cc(N)n3n2)cc1
EC50 [12]: 0.812 µM (active) | EC50 (H4): > 120 µM (not active) | EC50 [13]: 0.163 µM (active)

Cc1ccc(C)c(C(=O)COc2ccccc2[N+](=O)[O-])c1
EC50 [8]: 9.49 µM (active) | EC50 [9]: 10.2 µM (active)

COc1ccc(-n2c(O)cc(=O)nc2SCC(=O)Nc2ccccc2)cc1
EC50 (Streptococcus): > 150 µM (not active) | EC50 (Streptokinase A): > 150 µM (not active) | EC50 [6]: 67.3 µM (active)

N#Cc1nc(-c2cccc3ccccc23)oc1NCCN1CCCCC1
EC50 [12]: 12 µM (active) | IC50 [14]: > 20 µM (inactive) | EC50 (H4): > 120 µM (not active) | EC50 [13]: 12.4 µM (active)

c1ccc(CNc2ccc(N3CCOCC3)cc2)cc1
IC50 [5]: 8.18 µM (active)

CC(=O)/C=C/c1ccc2ccccc2n1
AC50 (Cytochrome P450 2C19): 39.8 µM (inconclusive) | EC50 [8]: 2.42 µM (active) | EC50 [9]: 2.58 µM (active)
